Experimental data: US20020032173A1, “Blood flow improvers and thrombosis preventives or remedies” (Koyo Chemical Co., Ltd., priority 2000, published 2002)
“And” between values parts separate entries of the source, which are not always exact repeats. Identical values can stand only once.

Tests used:
adult volunteers [1] = assay: Test 3: whole blood transit time by MC-FAN after oral N-acetylglucosamine; assay type: in vivo, human; conditions: mean before administration 60.9 sec
Experimental: From each of adult volunteers (A: male, B: female, C: female, D: female, E: male) who had taken usual breakfast, a first blood sample (10 mL) was collected at 1:00 p.m. Immediately after the collection of the blood sample, 1.5 g of glucosamine hydrochloride with 50 mL of water was administered to the volunteer. Blood samples (10 mL, each; 5% heparinated) were collected upon elapsed time of 30 min, 60 min and 90 min after the administration. The fluidity of each blood sample was determined by a microchannel array flow analyzer (MC-FAN) which is a capillary model fabricated by VLSI technology. The determination was carried out as will be described below. […] A transit time necessary for 100 μL of the whole blood sample to pass through the microchannels was measured. Using a transit time necessary for 100 μL of physiological saline to pass through the microchannels as measured just before the blood measurement, the transit time of the whole blood sample was converted in accordance with the following equation: Transit time of the whole blood x 12 sec/transit time of the physiological saline to obtain a value which would have been available if the transmit time of physiological saline had been 12 sec. The value was recorded as a blood transit time. […]

adult volunteers [2] = assay: Test 1: blood flow improving effects, whole blood transit time by microchannel array flow analyzer (MC-FAN) after oral glucosamine hydrochloride; assay type: in vivo, human; conditions: for Transit time: 100 μL heparinated whole blood; for Transit time, Mean: mean of 5 volunteers, mean before administration 50.3 sec
Experimental: From each of adult volunteers (A: male, B: female, C: female, D: female, E: male) who had taken usual breakfast, a first blood sample (10 mL) was collected at 1:00 p.m. Immediately after the collection of the blood sample, 1.5 g of glucosamine hydrochloride with 50 mL of water was administered to the volunteer. Blood samples (10 mL, each; 5% heparinated) were collected upon elapsed time of 30 min, 60 min and 90 min after the administration. The fluidity of each blood sample was determined by a microchannel array flow analyzer (MC-FAN) which is a capillary model fabricated by VLSI technology. The determination was carried out as will be described below. A fresh 5%-heparinated whole blood sample, which had been obtained by adding 0.5 part by weight of a 1,000 IU/mL heparin sodium solution to 9.5 parts by weight of the corresponding blood sample, was caused to flow through an array of 8,736 parallel microchannels of 7 μm in width, 30 μm in length and 4.5 μm in depth (Bloody 6-7) under 20 cmH2O suction by using the microchannel array flow analyzer (MC-FAN). A transit time necessary for 100 μL of the whole blood sample to pass through the microchannels was measured. Using a transit time necessary for 100 μL of physiological saline to pass through the microchannels as measured just before the blood measurement, the transit time of the whole blood sample was converted in accordance with the following equation: Transit time of the whole blood x 12 sec/transit time of the physiological saline to obtain a value which would have been available if the transmit time of physiological saline had been 12 sec. The value was recorded as a blood transit time. The results are shown in Table 1, including indices of whole blood transit times of the blood samples collected after the administration of the glucosamine hydrochloride based on those of the corresponding blood samples collected before the administration of glucosamine hydrochloride (% relative to an initial value of 100%).

| SMILES | mean blood transit time (adult volunteers [1]; 30 min after administration as in Test 1) | mean blood transit time (adult volunteers [1]; 1 hr after administration as in Test 1) | Index (%) of whole blood transit time relative to initial value of 100% (adult volunteers [2]; 30 min after oral 1.5 g) | Index (%) of whole blood transit time relative to initial value of 100% (adult volunteers [2]; 60 min after oral 1.5 g) | Transit time (adult volunteers [2]; individual volunteer E, 90 min after oral 1.5 g with 50 mL water) | Transit time (adult volunteers [2]; individual volunteers A-E, 30 min after oral 1.5 g with 50 mL water, normalised to saline 12 sec, hydrochloride) | Transit time (adult volunteers [2]; individual volunteers A-E, 60 min after oral 1.5 g with 50 mL water, hydrochloride) | Transit time, Mean (adult volunteers [2]; 30 min after oral 1.5 g) | Transit time, Mean (adult volunteers [2]; 60 min after oral 1.5 g) |
| --- | --- | --- | --- | --- | --- | --- | --- | --- | --- |
| CC(=O)N[C@H]1C(O)O[C@H](CO)[C@@H](O)[C@@H]1O (stereo partly drawn) [N-acetylglucosamine] | 36.5 s | increased back to the value before the administration |  |  |  |  |  |  |  |
| Cl.N[C@H]1C(O)O[C@H](CO)[C@@H](O)[C@@H]1O (stereo partly drawn) [glucosamine hydrochloride] |  |  | 70.0% | 67.1% | 31.6 s | 35.3 s and 36.1 s and 28.6 s and 38.6 s and 37.1 s | 28.7 s and 37.1 s and 27.4 s and 42.3 s and 33.2 s | 35.1 s | 33.7 s |
